Consider 41 compounds from patent publication USRE47193E1, “Selectively substituted quinoline compounds” (EISAI R&D MANAGEMENT CO., LTD., priority 2013, dated 2019).

Read-outs that look alike come from different tables or passages of the source.

The target of assay [1] is T1, human TLR8 (Homo sapiens, UniProt Q9NR97).
T1 construct: host or cells: HEK-293, then stably transfected with pNiFty2(NF-kappaB)-luciferase reporter
T1 sequence (Q9NR97 27-1041): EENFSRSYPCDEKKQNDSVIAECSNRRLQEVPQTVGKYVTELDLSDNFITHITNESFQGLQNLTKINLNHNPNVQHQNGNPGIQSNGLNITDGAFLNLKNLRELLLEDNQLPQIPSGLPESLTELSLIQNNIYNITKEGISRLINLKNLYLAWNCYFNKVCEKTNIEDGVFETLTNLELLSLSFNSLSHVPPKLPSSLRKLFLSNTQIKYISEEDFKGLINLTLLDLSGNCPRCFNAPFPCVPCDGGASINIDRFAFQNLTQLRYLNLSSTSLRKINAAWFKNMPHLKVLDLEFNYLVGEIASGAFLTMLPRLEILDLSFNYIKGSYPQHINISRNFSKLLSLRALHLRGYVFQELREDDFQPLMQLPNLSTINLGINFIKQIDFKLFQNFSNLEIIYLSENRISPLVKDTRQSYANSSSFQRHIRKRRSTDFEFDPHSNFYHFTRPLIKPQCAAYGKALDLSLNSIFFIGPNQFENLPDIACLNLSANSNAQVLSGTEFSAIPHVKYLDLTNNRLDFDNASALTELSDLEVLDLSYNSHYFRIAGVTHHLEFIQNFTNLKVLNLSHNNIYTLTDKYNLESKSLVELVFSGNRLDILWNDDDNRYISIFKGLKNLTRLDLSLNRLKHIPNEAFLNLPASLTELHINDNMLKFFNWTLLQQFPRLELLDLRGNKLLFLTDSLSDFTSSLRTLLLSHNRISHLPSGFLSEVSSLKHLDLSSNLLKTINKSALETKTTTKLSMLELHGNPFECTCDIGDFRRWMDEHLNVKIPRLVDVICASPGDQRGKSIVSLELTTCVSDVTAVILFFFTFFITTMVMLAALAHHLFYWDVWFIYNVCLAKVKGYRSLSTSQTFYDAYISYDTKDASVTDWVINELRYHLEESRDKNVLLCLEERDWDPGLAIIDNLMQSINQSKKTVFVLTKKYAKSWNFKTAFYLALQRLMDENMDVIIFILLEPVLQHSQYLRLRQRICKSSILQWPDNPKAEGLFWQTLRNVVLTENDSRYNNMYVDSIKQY
The assay is described as follows: HEK-293 human TLR8 NF-kappaB luciferase reporter assay (CL097). The class given is cell-based. On the procedure: Effects on mouse TLR7 were also compared. Cells were stimulated overnight with TLR7/8 agonist CL097 at pre-determined ED70-80: 3 ug/ml for HEK-hTLR7, 1.5 ug/ml for HEK-mTLR7 and 12 ug/ml for HEK-hTLR8, before reading luminescence intensity. Three tests were performed and IC50 value was determined using Graphpad Prism 6 nonlinear regression curve fit.
HEK-293 cells (ATCC) were engineered to stably express a NF-kappaB transcription factor inducible E-selectin (ELAM-1) luciferase reporter derived from the plasmid pGL3 (Promega) containing base pairs −2241 bp to −254 bp from the promoter of the human E-selectin gene (Accession No. NM_000450). These cells were then subsequently engineered to stably and individually express human TLR4, TLR7 or TLR9 full-length ORF cDNAs. Human TLR4 cDNA (Accession No. NM_138554) was cloned into pcDNA 3.0 expression vector (Invitrogen). TLR4 transfected cells were also engineered to express human MD-2 co-receptor [MD-2 cDNA (Accession No. NM_015364) was cloned into the pEF-BOS vector] and were supplemented with 10 nM soluble CD14 (R&D Systems) in the media to optimize LPS responsiveness. Human TLR9 cDNA (Accession No. NM_017442) was cloned into the pBluescript II KS vector (Agilent). Human TLR7 cDNA (Accession No. NM_016562) was obtained from OriGene. HEK-293 cells stably expressing human TLR8 (Accession No. NM_138636) or mouse TLR7 (Accession No. NM_133211) were purchased from InvivoGen and were then stably transfected with pNiFty2(NF-kappaB)-luciferase reporter plasmid (InvivoGen). Each cell type was plated in Dulbecco's modified Eagle's medium (DMEM) containing 10% fetal bovine serum (FBS) at a density of 2.22×10^5 cells/ml into a 384-well plate and incubated for 2 days at 37° C., 5% CO2. Varying concentrations of antagonist compounds were then added. Cells were then incubated for another 30 minutes before adding the appropriate TLR agonist as follows (final concentrations indicated): lipopolysaccharide (LPS; Sigma) at 10 ng/ml for TLR4, CL097 (InvivoGen) at 3 ug/ml for human TLR7 and TLR8 and mouse TLR7, and CvG-2006-2A [sequence: […] (SEQ ID NO: 1) with phosphorothioate backbone, synthesized by Sigma-Aldrich] at 0.6 uM for TLR9.
A general note: Reporter assays use an easily measured gene product as a stand-in for the process of interest.

For assay [2], the system named is Human TLR7/8. Kind of assay: Human PBMC cell-based assay, TLR7/8 stimulus (RNA-Ig), cytokine ELISA. Conditions: primary human PBMC assay, TLR7/8 potency; ligand not given; read-out: Human PBMCs IC50. A digest of the protocol:
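Healthy-donor human PBMC, 2×10^5 cells/well (1×10^5 in later assay), pre-treated 30 min with compound (0.1% DMSO). Stimulated 20 h at 37 °C with RNA-Ig: 26-mer U1 snRNA stem loop IV phosphorothioate RNA at 2.5 μM plus anti-ssDNA antibody (1:25 or 1 ug/ml). Supernatant cytokines by ELISA.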
In general terms: An ELISA detects its analyte on a solid surface through an enzyme-linked reagent.

Where [3] appears, read: HEK-293 assay format, read-out: HEK/hTLR8 IC50.

Consider `CC1CN(c2ccc(C#N)c3ncccc23)CC(CN2CCCC2C(C)C)O1` (mixture of isomers) [ER-886816], for which, in assay [1] (setting [3]), the IC50 worked out at 107 nM.

Turning to `CC1CN(c2ccc(C#N)c3ncccc23)CC(CNC2CCCC2O)O1` (mixture of isomers) [ER-887528], the values for the IC50 in assay [1] (setting [3]) and in assay [2] were 135 nM and 56 nM, respectively.

Take `C=CC(O)[C@H]1CN(c2ccc(C#N)c3ncccc23)C[C@@H](C)O1` (single isomer, unassigned) [ER-886431]: the IC50 in assay [1] (setting [3]) is 31 nM.

`CCCCC(O)C1CN(c2ccc(C#N)c3ncccc23)CC(C)O1` (single isomer, unassigned) [ER-886530]: the IC50 in assay [1] (setting [3]) is 5 nM.

On to `CC1CN(c2ccc(C#N)c3ncccc23)CC(C(O)C2CCCCC2)O1` (single isomer, unassigned) [ER-886532], for which, in assay [1] (setting [3]), the IC50 was 30 nM.

Turning to `CC1CN(c2ccc(C#N)c3ncccc23)CC(C(O)C2CCCCC2)O1` (single isomer, unassigned) [ER-886533], the IC50 in assay [1] (setting [3]) amounted to 14 nM.

Turning to `CC1CN(c2ccc(C#N)c3ncccc23)CC(C(O)CCc2ccccc2)O1` (single isomer, unassigned) [ER-886567], the IC50 in assay [1] (setting [3]) was 5 nM; in assay [2] it was 22 nM.

Regarding `CC1CN(c2ccc(C#N)c3ncccc23)CC(C(O)CCc2ccccc2)O1` (single isomer, unassigned) [ER-886568], the IC50 came out at 5 nM in assay [1] (setting [3]) and 79 nM in assay [2].

On to `N#Cc1ccc(N2CCOC(CCl)C2)c2cccnc12` (stereo not shown) [ER-879484], for which, in assay [1] (setting [3]), the IC50 is 18 nM.

For the compound `C[C@@H]1CN(c2ccc(C#N)c3ncccc23)C[C@H](CNC(=O)C(C)(C)C)O1` [ER-879713], the IC50 in assay [1] (setting [3]) was 80 nM.

For `C[C@H]1CN(c2ccc(C#N)c3ncccc23)C[C@H](C)O1` [ER-880191], the IC50 in assay [1] (setting [3]) amounted to 10 nM.

Turning to `COc1ccc(N2C[C@@H](C)O[C@@H](C)C2)c2cccnc12` [ER-885113], the IC50 in assay [1] (setting [3]) worked out at 11 nM.

As for `COC[C@H]1CN(c2ccc(C#N)c3ncccc23)C[C@@H](C)O1` [ER-885612], the IC50 in assay [1] (setting [3]) came to 55 nM; in assay [2], 614 nM.

As to `C[C@@H]1CN(c2ccc(C#N)c3ncccc23)C[C@H](COCc2ccccc2)O1` [ER-885618, 5-((2R,6R)-2-((benzyloxy)methyl)-6-methylmorpholino)quinoline-8-carbonitrile], the values for the IC50 in assay [1] (setting [3]) and in assay [2] were 5 nM and 23 nM, respectively.

On to `C[C@@H]1CN(c2ccc(C#N)c3ncccc23)C[C@H](CF)O1` [ER-885621], for which, in assay [1] (setting [3]), the IC50 amounted to 25 nM.

Regarding `CC(C)COC[C@H]1CN(c2ccc(C#N)c3ncccc23)C[C@@H](C)O1` [ER-885892], the IC50 in assay [1] (setting [3]) came out at 37 nM.

Consider `C[C@@H]1CN(c2ccc(C#N)c3ncccc23)C[C@H](CCl)O1` [ER-885906], for which the IC50 worked out at 20 nM in assay [1] (setting [3]) and 33 nM in assay [2].

`C[C@@H]1CN(c2ccc(C#N)c3ncccc23)C[C@H](COCC2CCCCC2)O1` [ER-885930]: in assay [1] (setting [3]), the IC50 was 147 nM.

Consider `CC[C@@H]1CN(c2ccc(C#N)c3ncccc23)C[C@H](COCc2ccccc2)O1` [ER-886355], for which the IC50 was 66 nM in assay [1] (setting [3]) and 177 nM in assay [2].

On to `C[C@@H]1CN(c2ccc(C#N)c3ncccc23)C[C@H](CN2CCCC2)O1` [ER-886507], for which, in assay [1] (setting [3]), the IC50 was found to be 182 nM.

As to `CCN(CC)C[C@H]1CN(c2ccc(C#N)c3ncccc23)C[C@@H](C)O1` [ER-886508], the IC50 in assay [1] (setting [3]) was found to be 186 nM.

`C[C@@H]1CN(c2ccc(C#N)c3ncccc23)C[C@H](CNCc2ccccc2)O1` [ER-886509] showed an IC50 in assay [1] (HEK/hTLR8 IC50, HEK-293 assay format) of 119 nM.

As to `C[C@@H]1CN(c2ccc(C#N)c3ncccc23)C[C@H](COc2ccccc2)O1` [ER-886514], the IC50 in assay [1] (setting [3]) worked out at 5 nM.

Consider `C[C@@H]1CN(c2ccc(C#N)c3ncccc23)C[C@H](COc2ccccc2F)O1` [ER-886624], for which the IC50 in assay [1] (setting [3]) worked out at 86 nM; in assay [2], 23 nM.

Consider `CCC(=O)[C@H]1CN(c2ccc(C#N)c3ncccc23)C[C@@H](C)O1` [ER-886625], for which the IC50 in assay [1] (setting [3]) came out at 10 nM; in assay [2] it was 91 nM.

For the compound `C[C@@H]1CN(c2ccc(C#N)c3ncccc23)C[C@H](C(=O)C2CCCCC2)O1` [ER-886626], the IC50 in assay [1] (setting [3]) came out at 5 nM; in assay [2], 80 nM.

For the compound `C[C@@H]1CN(c2ccc(C#N)c3ncccc23)C[C@H](C(=O)CCc2ccccc2)O1` [ER-886629], the IC50 in assay [1] (setting [3]) was 5 nM.

Regarding `C[C@@H]1CN(c2ccc(C#N)c3ncccc23)C[C@H](CN2CC[C@@H](c3ccccc3)C2)O1` [ER-886818], the IC50 in assay [1] (setting [3]) came to 81 nM.

As for `C[C@@H]1CN(c2ccc(C#N)c3ncccc23)C[C@H](CN2CCC(c3ccccc3)C2)O1` (stereo partly shown) [ER-886854], the IC50 in assay [1] (setting [3]) worked out at 46 nM; in assay [2] it was 20 nM.

In the case of `CC1CCC(C)N1C[C@H]1CN(c2ccc(C#N)c3ncccc23)C[C@@H](C)O1` (stereo partly shown) [ER-886857], the IC50 is 72 nM in assay [1] (setting [3]) and 98 nM in assay [2].

As to `COc1ccnc(NC[C@H]2CN(c3ccc(C#N)c4ncccc34)C[C@@H](C)O2)c1` [ER-886858], the results for the IC50 in assay [1] (setting [3]) and in assay [2] were 2 nM and 15 nM, respectively.

Regarding `C[C@@H]1CN(c2ccc(C#N)c3ncccc23)C[C@H](CN2CCC(C)(C)C2)O1` [ER-886869], the IC50 in assay [1] (setting [3]) was 161 nM; in assay [2] it was 112 nM.

`C[C@@H]1CN(c2ccc(C#N)c3ncccc23)C[C@H](CN2CCC[C@@H](O)C2)O1` [ER-886949]: the figures for the IC50 in assay [1] (setting [3]) and in assay [2] were 78 nM and 32 nM, respectively.

On to `C[C@@H]1CN(c2ccc(C#N)c3ncccc23)C[C@H](CN2CCCCC2CO)O1` (stereo partly shown) [ER-886955], for which the results for the IC50 in assay [1] (setting [3]) and in assay [2] were 83 nM and 129 nM, respectively.

`C[C@@H]1CN(c2ccc(C#N)c3ncccc23)C[C@H](CNc2cccnc2)O1` [ER-887138]: the IC50 worked out at 13 nM in assay [1] (setting [3]) and 4 nM in assay [2].

`C[C@@H]1CN(c2ccc(C#N)c3ncccc23)C[C@H](CN2CCC(F)(F)CC2)O1` [ER-887142]: the IC50 turned out to be 115 nM in assay [1] (setting [3]) and 147 nM in assay [2].

For the compound `C[C@@H]1CN(c2ccc(C#N)c3ncccc23)C[C@H](CN2CCC(c3ccccc3)CC2)O1` [ER-887143], the IC50 in assay [1] (setting [3]) amounted to 148 nM; in assay [2] it was 13 nM.

In the case of `CC1CN(c2ccc(C#N)c3ncccc23)CC(CN2CCC(F)CC2)O1` (stereo not shown) [ER-887144], the figures for the IC50 in assay [1] (setting [3]) and in assay [2] were 48 nM and 63 nM, respectively.

For the compound `C[C@@H]1CN(c2ccc(C#N)c3ncccc23)C[C@H](CNC2CCCCCC2)O1` [ER-887444], the IC50 in assay [1] (setting [3]) was found to be 193 nM.

On to `CC1CCCCC1NC[C@H]1CN(c2ccc(C#N)c3ncccc23)C[C@@H](C)O1` (stereo partly shown) [ER-887539], for which, in assay [1] (setting [3]), the IC50 amounted to 0.5 nM.

As for `C[C@@H]1CN(c2ccc(C#N)c3ncccc23)C[C@H](CN2CCC[C@@H](N)C2)O1` [ER-887928], the IC50 in assay [1] (setting [3]) is 11 nM.
